# Measurements from publication PMC4870834 (Biochemistry, 2015).
# Tests used:
# Experiment in all cases: intrinsic fluorescence titration
# Type in all cases: binding
# SULT1A1 [1] = molecular target: SULT1A1 (Homo sapiens, UniProt P50225, V243G)
# SULT1A1 [2] = molecular target: SULT1A1 (Homo sapiens, UniProt P50225, D249S)
# SULT1A1 [3] = molecular target: SULT1A1 (Homo sapiens, UniProt P50225)
# SULT1A1 [4] = molecular target: SULT1A1 (Homo sapiens, UniProt P50225, I89A)
# SULT1A1 [5] = molecular target: SULT1A1 (Homo sapiens, UniProt P50225, F255A)
# Chain of SULT1A1 (Homo sapiens, UniProt P50225, F255A) (P50225 whole entry F255A): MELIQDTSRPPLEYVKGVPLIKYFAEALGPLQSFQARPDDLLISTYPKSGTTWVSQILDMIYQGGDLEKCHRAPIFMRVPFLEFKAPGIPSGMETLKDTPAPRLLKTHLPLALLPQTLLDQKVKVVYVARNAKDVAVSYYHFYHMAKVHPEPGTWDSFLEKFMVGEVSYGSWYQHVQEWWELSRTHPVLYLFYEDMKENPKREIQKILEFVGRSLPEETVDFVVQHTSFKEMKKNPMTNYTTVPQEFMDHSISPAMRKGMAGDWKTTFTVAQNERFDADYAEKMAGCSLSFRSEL
# Chain of SULT1A1 (Homo sapiens, UniProt P50225, V243G) (P50225 whole entry V243G): as the sequence (P50225 whole entry F255A) above, with V243G, A255F counted along it
# Chain of SULT1A1 (Homo sapiens, UniProt P50225, I89A) (P50225 whole entry I89A): as the sequence (P50225 whole entry F255A) above, with I89A, A255F counted along it
# Chain of SULT1A1 (Homo sapiens, UniProt P50225, D249S) (P50225 whole entry D249S): as the sequence (P50225 whole entry F255A) above, with D249S, A255F counted along it
# Chain of SULT1A1 (Homo sapiens, UniProt P50225) (P50225 whole entry): as the sequence (P50225 whole entry F255A) above, with A255F counted along it
Kd (SULT1A1 [1]) [nM],Kd (SULT1A1 [2]) [nM],Kd (SULT1A1 [3]) [nM],Kd (SULT1A1 [4]) [nM],Kd (SULT1A1 [5]) [nM],Structure (SMILES)
2200,2200,1500,1800,2000,Oc1ccc2ccccc2c1 [2-Nap]
900,900,,1500,900,C[C@]12CC[C@@H]3c4ccc(O)cc4CC[C@H]3[C@@H]1CC[C@@H]2O [E2]
280,300,270,310,270,Nc1ncnc2c1ncn2[C@@H]1O[C@H](COP(=O)(O)O)[C@@H](OP(=O)(O)O)[C@H]1O [PAP]
1300,1600,1700,1100,1500,C[C@]12CC[C@@H]3c4ccc(O)cc4C[C@@H](CCCCCCCCC[S+]([O-])CCCC(F)(F)C(F)(F)F)[C@H]3[C@@H]1CC[C@@H]2O (stereo partly shown) [fulvestrant]
